This note sets out measurements from patent US20240408122A1, “PHARMACEUTICAL COMPOSITION FOR PREVENTION OR TREATMENT OF METABOLIC DISEASE COMPRISING LYSOPHOSPHOLIPID” (SEOUL NATIONAL UNIVERSITY R&DB FOUNDATION, priority 2021, published 2024).

The structures appear in SMILES notation.

Test [1] relates to C3H10T1/2 adipocytes. Put plainly: Immunoblot analysis of C3H10T1/2 adipocytes (PKA signaling, mitochondrial enzymes). To be noted: for levels of phosphorylated HSL, CREB and PKA substrates / mitochondrial enzymes, including MCAD, ATP5A, UQCRC2, SDHB, NDUFB8, and COXIV: 1 μM; for levels of phosphorylated HSL, CREB and PKA substrates: 24 or 48 hours, vs vehicle, FIG. 1A; for mitochondrial enzymes, including MCAD, ATP5A, UQCRC2, SDHB, NDUFB8, and COXIV: long-term treatment (48 hours), FIG. 1B. Type of test: cell-based. As for the experimental part:
(§1) C3H10T1/2 cells were purchased from the American Type Culture Collection (ATCC), and in vitro adipocyte experiments were performed using these cells, which were cultured in DMEM (Welgene) supplemented with 10% FBS (Gibco) and 1% P/S at 37° C. in a humidified atmosphere of 5% CO2. To prepare fully differentiated C3H10T1/2 adipocytes, confluent C3H10T1/2 cells were exposed to BMP4 (R&D system, 20 ng/ml) for 2 days, and induced in a differentiation medium containing IBMX (isobutylmethylxanthine, Cayman, 0.5 mM), dexamethasone (Cayman, 1 μM), insulin (Sigma, 10 μg/mL), indomethacin (Cayman, 0.125 mM), and triiodothyronine (T3, Cayman, 1 nM) for 3 days, then exposed to a maintenance medium containing insulin (1 μg/mL) and T3 (1 nM) for 3 days. To evaluate in vitro effects of lysoplasmalogen, the fully differentiated C3H10T1/2 cells were treated with vehicle control, LPE P-18:0 (1 μM) or LPC P-18:0 (1 μM), LPC P-16:0. (10 μM) or isoproterenol (10 μM) for an indicated time.
(§2) BAT, iWAT and gWAT of mice fed a HFD and administered vehicle control or LPE P-18:0 intraperitoneally were homogenized using the tacoPrep Bead Beater homogenization system in a PROPREP protein extraction solution (iNtRON Biotechnology) containing SIGMAFAST Protease Inhibitor Cocktail (Sigma) and PhoSTOP phosphatase inhibitor (Roche). C3H10T1/2 adipocytes treated with vehicle control, LPE P-18:0 (1 μM) or LPC P-18:0 (1 μM), LPC P-16:0 (10 µM) or isoproterenol (10 μM) were lysed in RIPA Lysis and Extraction Buffer (Thermo Fisher Scientific) containing SIGMAFAST protease inhibitor cocktail (Sigma) and PhoSTOP phosphatase inhibitor (Roche). The extracted protein concentration was quantified by BCA analysis and measured by spectrophotometry at 562 nm (MultiSkan GO, Thermo Fisher Scientific). Proteins were denatured in an SDS sample buffer at 95° C. for 5 min, separated in SDS-PAGE gel, and transferred to a PVDF membrane (Bio-Rad). The membrane was blocked with BSA in 5% non-fat dry milk or TBST (Tris-buffered saline containing 0.1% Tween 20) and incubated overnight along with the primary antibody at 4° C., then cultured with horseradish peroxidase (HRP)-conjugated secondary antibody for 1 hour at room temperature. The primary antibody used for Western blot analysis are listed in Reagents or Resources. Protein expression was detected by a Fusion Solo chemiluminescence imaging system (Vilber Lourmat) and analyzed with EvolutionCapt software (version 17.03). Immunoblots were quantified with National Institutes of Health ImageJ software (version 1.52a).
For orientation: Immunoblotting shows a protein as a band on a membrane.

Test [2] relates to C3H10T1/2 adipocytes. Put plainly: Quantification of intracellular cAMP level (Direct cAMP ELISA). Type of test: cell-based. To be noted: 1 μM, 24 hours; FIG. 2A. As for the experimental part:
as §1, with “To evaluate in vitro effects of lysoplasmalogen, the fully differentiated C3H10T1/2 cells were treated with vehicle control, LPE P-18:0 (1 μM) or LPC P-18:0 (1 μM), LPC P-16:0. (10 μM) or isoproterenol (10 μM) for an indicated time.” left out
To measure intracellular CAMP levels in the differentiated C3H10T1/2 adipocytes treated with LPC P-18:0 (1 μM), LPE P-18:0 (1 μM) or isoproterenol (10 μM), The Direct CAMP ELISA Kit (Enzo) was used according to the manufacturer's instructions. […] The absorbance of the plate was measured at 405 nm, and the calculated absorbance was converted into pmol/ml of CAMP using AssayFit Pro (v1.31), and normalized to protein concentration measured with the Pierce BCA Protein Assay Kit (Thermo Fisher Scientific).

Test [3] has as its system C3H10T1/2 adipocytes. Put plainly: Oxygen consumption rate (Seahorse XF, Cell Mito Stress Test). To be noted: 1 μM; FIGS. 2B and 2C. Type of test: cell-based. On the procedure:
as §1
Oxygen consumption rates (OCRs) were measured with a Seahorse XF Analyzer (Agilent). The differentiated C3H10T1/2 adipocytes […] treated with LPC P-18:0 (1 μM), LPE P-18:0 or vehicle were washed, and maintained in an assay medium (XF DMEM basal medium, pH 7.4 (Agilent)) supplemented with D-(+)-glucose (25 mM) and L-glutamine (4 mM). The XFp Cell Mito Stress Test Kit (Agilent) was used at concentrations of 2.5 μM oligomycin, 0.5 μM carbonyl cyanide-4-(trifluoromethoxy) phenylhydrazone (FCCP) and 0.5 µM rotenone/antimycin A. Basal and maximal OCRs were calculated by subtracting non-mitochondrial respiration. The ATP production rate was calculated by subtracting the OCR induced by oligomycin A from the basal OCR. Spare respiratory capacity was calculated by subtracting baseline OCR from the maximal OCR. The OCR was normalized to protein concentration. Data were analyzed using Agilent Wave software (version 2.6.0.31).

For test [4], the system named is HFD-fed mice. Kind of test: Intraperitoneal insulin tolerance test (ITT). Type of test: in vivo. To be noted: 200 μg/kg/day intraperitoneally for 2 weeks, insulin 0.75 units/kg i.p., FIG. 5E. As for the experimental part: (§3) For the diet-induced obesity model, 8-week-old mice were fed a HFD (60% fat, Research Diets, cat #D12492) for 8 weeks. Standardized rodent pellet feed (NCD, Purina, cat #38057) was used as the control feed. Energy expenditure (EE) was estimated by an indirect calorimeter (PhenoMaster, TSE Systems, Germany). Body compositions were measured by nuclear magnetic resonance (NMR) scanning EchoMRI-700 (Echo Medical Systems). To investigate effects of treatment with LPE P-18:0, the mice were fed a HFD for 8 weeks and injected intraperitoneally with LPE P-18:0 (Avanti Polar Lipids, 200 μg/kg/day, cat #852471P) or vehicle for 2 weeks.
For the insulin tolerance test, the mice were fasted for 6 hours before the test, was injected intraperitoneally with insulin (Sigma, 0.75 units/kg body weight, cat #91077C-1G), and blood glucose was measured at a designated time interval.

Test [5] deals with HFD-fed mice. Kind of test: Glucose tolerance test in HFD-fed mice. Type of test: in vivo. To be noted: 200 μg/kg/day intraperitoneally for 2 weeks, FIG. 4. On the procedure: as §3
The test system of test [6] is HFD-fed mice. Kind of test: Body weight and body composition in diet-induced obesity model. Type of test: in vivo. To be noted: 200 μg/kg/day intraperitoneally for 2 weeks, FIG. 5. As for the experimental part: as §3
In test [7] the test system is adipose tissues of HFD-fed mice. Put plainly: Immunoblot analysis of BAT, iWAT and gWAT of HFD-fed mice. Type of test: in vivo. To be noted: 200 μg/kg/day intraperitoneally for 2 weeks, FIGS. 3A, 3B. As for the experimental part: as §2, with “Proteins were denatured in an SDS sample buffer at 95° C. for 5 min, separated in SDS-PAGE gel, and transferred to a PVDF membrane (Bio-Rad). The membrane was blocked with BSA in 5% non-fat dry milk or TBST (Tris-buffered saline containing 0.1% Tween 20) and incubated overnight along with the primary antibody at 4° C., then cultured with horseradish peroxidase (HRP)-conjugated secondary antibody for 1 hour at room temperature. The primary antibody used for Western blot analysis are listed in Reagents or Resources.” left out
For the diet-induced obesity model, 8-week-old mice were fed a HFD (60% fat, Research Diets, cat #D12492) for 8 weeks. […] Body compositions were measured by nuclear magnetic resonance (NMR) scanning EchoMRI-700 (Echo Medical Systems). […]

Test [8] has as its system HFD-fed mice. Kind of test: Indirect calorimetry analysis in HFD-fed mice. To be noted: 200 μg/kg/day intraperitoneally for 2 weeks. Type of test: in vivo. On the procedure:
as §3

In the case of `CCCCCCCCCCCCCC/C=C\OC[C@@H](O)COP(=O)([O-])OCC[N+](C)(C)C` [LPC P-16:0], the “levels of phosphorylated HSL and CREB” value in the test on C3H10T1/2 adipocytes [1] (10 μM, 4 hours, vs vehicle (4 mg/mL fatty acid-free BSA), FIG. 6) is on record as “significant increase”.

For `CCCCCCCCCCCCCCCC/C=C\OC[C@@H](O)COP(=O)([O-])OCC[N+](C)(C)C` [LPC P-18:0], the “intracellular cAMP levels” value in the test with C3H10T1/2 adipocytes [2] was “increase”. Also, in the test on C3H10T1/2 adipocytes [1], the “levels of phosphorylated HSL, CREB and PKA substrates” value was “significant increase”; the “mitochondrial enzymes, including MCAD, ATP5A, UQCRC2, SDHB, NDUFB8, and COXIV” value was “significant upregulation”. Moreover, in the test on C3H10T1/2 adipocytes [3], the ATP production rate entry is “increase”, the maximum respiration rate entry is on record as “increase” and the spare respiratory capacity entry is on record as “increase”.

Take `CCCCCCCCCCCCCCCC/C=C\OC[C@@H](O)COP(=O)(O)OCCN` [LPE P-18:0]: the insulin tolerance result in the test on HFD-fed mice [4] was “decreased”. Besides, the “intracellular cAMP levels” value in the test with C3H10T1/2 adipocytes [2] is reported as “increase”. Besides, in the test on HFD-fed mice [5], the glucose tolerance entry is “improves”. In the test on C3H10T1/2 adipocytes [1], the “levels of phosphorylated HSL, CREB and PKA substrates” value is “significant increase”; the “mitochondrial enzymes, including MCAD, ATP5A, UQCRC2, SDHB, NDUFB8, and COXIV” value is on record as “significant upregulation”. In addition, in the test with HFD-fed mice [6], the body fat mass entry is on record as “decreased” and the body weight result is on record as “decreased”. The “PKA signaling and mitochondrial activity in the adipose tissues” value in test [7] is recorded as “upregulates”. For the same compound, in the test with HFD-fed mice [8], the Food intake entry is “decreased” and the activity result is “increased”. Besides, in the test on HFD-fed mice [8] (FIGS. 5C, 5D), the VO2 entry is given as “increased” and the energy expenditure result is “increased”. In the test on C3H10T1/2 adipocytes [3], the ATP production rate result is “increase”, the maximum respiration rate result is “increase” and the spare respiratory capacity entry is on record as “increase”.
